# Results reported in ChEMBL document CHEMBL4483862, “Open-source discovery of chemical leads for next-generation chemoprotective antimalarials” (2018).
# Tested on: Plasmodium berghei
# Assay: Luciferase/luciferin-expressing antifolate-resistant parasites were used to infect a culture of HepG2 cells that were pre-incubated with compounds. Infected hepatocytes emit light due to the luciferase reaction. Assay results are presented as the percent inhibition of light emission compared to control. […]
# Format: functional
# Details: sporozoite; for IC90: read-out: LUCIFERASE INFECTION ASSAY - IC90
Compound,IC90 [µM],other results
CC(N=C(S)Nc1ccc(OC(F)F)c(Cl)c1)C(C)(C)C (configuration not stated),> 10,"IC50 (HEPG2TOX_HILL_SLOPE 8.22, HEPG2TOX_R_SQUARED 0.242, PBLUC_HILL_SLOPE 12.6, PBLUC_R_SQUARED 0.772, read-out: LUCIFERASE INFECTION ASSAY - IC50): 8.6 µM"
CCN(Cc1ccccc1)c1ccc(/C=N/N=C(N)N)cc1,5.13,"IC50 (HEPG2TOX_HILL_SLOPE 8.25, HEPG2TOX_R_SQUARED 0.944, PBLUC_HILL_SLOPE 2.7, PBLUC_R_SQUARED 0.838, read-out: LUCIFERASE INFECTION ASSAY - IC50): 2.27 µM"
O=C(NC1CC1)c1ccc(-c2cn3c(-c4ccc5ncccc5c4)cnc3cn2)cc1,> 8.14,"IC50 (HEPG2TOX_HILL_SLOPE 8.34, HEPG2TOX_R_SQUARED 0.193, PBLUC_HILL_SLOPE 5.05, PBLUC_R_SQUARED 0.479, read-out: LUCIFERASE INFECTION ASSAY - IC50): 7.19 µM"
FC(F)(F)c1cccc(-c2ccc3ncc(-c4ccncc4)n3n2)c1,1.31,"IC50 (HEPG2TOX_HILL_SLOPE 8.22, HEPG2TOX_R_SQUARED 0.275, PBLUC_HILL_SLOPE 7.22, PBLUC_R_SQUARED 0.51, read-out: LUCIFERASE INFECTION ASSAY - IC50): 0.969 µM"
COc1ccc(N2C(=O)c3ccccc3C(C=NNC(=O)c3ccc(C)cc3)C2=O)cc1OC (configuration not stated),5.03,"IC50 (HEPG2TOX_HILL_SLOPE 8.3, HEPG2TOX_R_SQUARED 0.704, PBLUC_HILL_SLOPE 7.2, PBLUC_R_SQUARED 0.273, read-out: LUCIFERASE INFECTION ASSAY - IC50): 3.7 µM"
CC(=O)N1N=C(c2ccccc2O)CC1c1c(F)cccc1Cl (configuration not stated),9.88,"IC50 (HEPG2TOX_HILL_SLOPE 8.22, HEPG2TOX_R_SQUARED 0.351, PBLUC_HILL_SLOPE 15.6, PBLUC_R_SQUARED 0.178, read-out: LUCIFERASE INFECTION ASSAY - IC50): 8.59 µM"
COc1ccccc1NC(=O)C(C)OC(=O)c1ccc(NS(=O)(=O)c2ccc(Cl)c(Cl)c2)cc1 (configuration not stated),> 10,"IC50 (HEPG2TOX_HILL_SLOPE 8.29, HEPG2TOX_R_SQUARED 0.881, read-out: LUCIFERASE INFECTION ASSAY - IC50): > 10 µM"
Cc1cccc(-c2nnc(Sc3nc(C)nc4sc5c(c34)CCCC5)n2CC(N)=O)c1,1.1,"IC50 (HEPG2TOX_HILL_SLOPE 8.24, HEPG2TOX_R_SQUARED 0.61, PBLUC_HILL_SLOPE 14.6, PBLUC_R_SQUARED 0.735, read-out: LUCIFERASE INFECTION ASSAY - IC50): 0.944 µM"
NC(=O)c1ccc(-c2cc(-c3ccc(F)cc3)cnc2N)cc1,2.33,"IC50 (HEPG2TOX_HILL_SLOPE 8.28, HEPG2TOX_R_SQUARED 0.58, PBLUC_HILL_SLOPE 436, PBLUC_R_SQUARED 0.522, read-out: LUCIFERASE INFECTION ASSAY - IC50): 2.32 µM"
CC(=O)C1C2C(=O)N(C(C)(C)C)C(=O)C2C2C=Cc3ccc4cccnc4c3N21 (configuration not stated),6.42,"IC50 (HEPG2TOX_HILL_SLOPE 8.2, HEPG2TOX_R_SQUARED 0.867, PBLUC_HILL_SLOPE 4.87, PBLUC_R_SQUARED 0.475, read-out: LUCIFERASE INFECTION ASSAY - IC50): 4.09 µM"
C/C(=N\NC(=S)NC(C)(C)C)c1cc(F)cc(F)c1O,10.5,"IC50 (HEPG2TOX_HILL_SLOPE 8.26, HEPG2TOX_R_SQUARED 0.458, PBLUC_HILL_SLOPE 21.3, PBLUC_R_SQUARED 0.177, read-out: LUCIFERASE INFECTION ASSAY - IC50): 9.5 µM"
CC(OC(=O)c1c(NC(=O)C2CCCCC2)sc2c1CCC2)C(=O)Nc1[nH]cnc2ncnc1-2 (configuration not stated),> 10,"IC50 (HEPG2TOX_HILL_SLOPE 8.29, HEPG2TOX_R_SQUARED 0.38, read-out: LUCIFERASE INFECTION ASSAY - IC50): > 10 µM"
O=C(COc1ccc2c3c(c(=O)oc2c1)CCC3)Nc1nc(-c2ccccn2)cs1,> 10,"IC50 (HEPG2TOX_HILL_SLOPE 8.22, HEPG2TOX_R_SQUARED 0.725, PBLUC_HILL_SLOPE 12.7, PBLUC_R_SQUARED 0.0522, read-out: LUCIFERASE INFECTION ASSAY - IC50): 9.13 µM"
O=C1/C(=C/c2ccc3c(c2)OCO3)CCCc2ccccc21,> 11.3,"IC50 (HEPG2TOX_HILL_SLOPE 8.25, HEPG2TOX_R_SQUARED 0.793, PBLUC_HILL_SLOPE 3.07, PBLUC_R_SQUARED 0.361, read-out: LUCIFERASE INFECTION ASSAY - IC50): > 11.3 µM"
CCCCNC(=O)Nc1nc(-c2ccccc2)cn1/N=C/c1ccccc1,> 10,"IC50 (HEPG2TOX_HILL_SLOPE 8.27, HEPG2TOX_R_SQUARED 0.417, read-out: LUCIFERASE INFECTION ASSAY - IC50): > 10 µM"
COc1cc(-c2cn3c(-c4cccc(C(C)=O)c4)cnc3cn2)ccc1O,> 9.18,"IC50 (HEPG2TOX_HILL_SLOPE 8.28, HEPG2TOX_R_SQUARED 0.589, PBLUC_HILL_SLOPE 10.1, PBLUC_R_SQUARED 0.274, read-out: LUCIFERASE INFECTION ASSAY - IC50): 7.75 µM"

Compound,IC90 [µM],other results
O=C(/C=C/c1ccccc1OC(F)F)N(Cc1ccccc1)c1nnc(SC(F)F)s1,3.6,"IC50 (HEPG2TOX_HILL_SLOPE 8.23, HEPG2TOX_R_SQUARED 0.589, PBLUC_HILL_SLOPE 26.6, PBLUC_R_SQUARED 0.272, read-out: LUCIFERASE INFECTION ASSAY - IC50): 3.31 µM"
FC(F)Oc1ccc(NC(=S)NCC23CC4CC(CC(C4)C2)C3)cc1,9.77,"IC50 (HEPG2TOX_HILL_SLOPE 8.2, HEPG2TOX_R_SQUARED 0.229, PBLUC_HILL_SLOPE 14.4, PBLUC_R_SQUARED 0.791, read-out: LUCIFERASE INFECTION ASSAY - IC50): 8.38 µM"
Cn1cc(-c2cn3c(-c4cccc(O)c4)cnc3cn2)cn1,> 11.3,"IC50 (HEPG2TOX_HILL_SLOPE 8.37, HEPG2TOX_R_SQUARED 0.807, PBLUC_HILL_SLOPE 3.66, PBLUC_R_SQUARED 0.561, read-out: LUCIFERASE INFECTION ASSAY - IC50): 6.93 µM"
C=C(C)[C@@H]1CC=C(CN2CCC3(CC2)C(=O)N(Cc2cccnc2)C(=O)N3CCc2ccccc2)CC1,> 6.62,"IC50 (HEPG2TOX_HILL_SLOPE 8.2, HEPG2TOX_R_SQUARED 0.91, PBLUC_HILL_SLOPE 3.93, PBLUC_R_SQUARED 0.652, read-out: LUCIFERASE INFECTION ASSAY - IC50): 3.82 µM"
Cc1c(C(=O)Nc2ccccc2C(=O)NC2CC2)cnn1-c1cccc(C(F)(F)F)c1,0.41,"IC50 (HEPG2TOX_HILL_SLOPE 8.3, HEPG2TOX_R_SQUARED 0.547, PBLUC_HILL_SLOPE 12.1, PBLUC_R_SQUARED 0.521, read-out: LUCIFERASE INFECTION ASSAY - IC50): 0.342 µM"
COc1ccc(N/N=C2\C=CC(=O)c3ncccc32)cc1,> 10,"IC50 (HEPG2TOX_HILL_SLOPE 8.38, HEPG2TOX_R_SQUARED 0.289, PBLUC_HILL_SLOPE 16, PBLUC_R_SQUARED 0.427, read-out: LUCIFERASE INFECTION ASSAY - IC50): 9.1 µM"
COc1cc(C(=O)NCCCn2ccc3ccccc32)cc(OC)c1C,> 10,"IC50 (HEPG2TOX_HILL_SLOPE 8.33, HEPG2TOX_R_SQUARED 0.471, PBLUC_HILL_SLOPE 17.9, PBLUC_R_SQUARED 0.367, read-out: LUCIFERASE INFECTION ASSAY - IC50): 9.65 µM"
CN(C)C(=O)c1ccc(-c2cc3c(Nc4cccc(OC(F)(F)F)c4)nccc3[nH]2)cc1,> 10,"IC50 (HEPG2TOX_HILL_SLOPE 8.24, HEPG2TOX_R_SQUARED 0.393, PBLUC_HILL_SLOPE 3.02, PBLUC_R_SQUARED 0.574, read-out: LUCIFERASE INFECTION ASSAY - IC50): 4.92 µM"
CN(CC(=O)Nc1nc(C23CC4CC(CC(C4)C2)C3)cs1)C(=O)c1ccco1,4.63,"IC50 (HEPG2TOX_HILL_SLOPE 8.2, HEPG2TOX_R_SQUARED 0.447, PBLUC_HILL_SLOPE 10.5, PBLUC_R_SQUARED 0.337, read-out: LUCIFERASE INFECTION ASSAY - IC50): 3.76 µM"
O=C(Nc1cccc(-n2cnnn2)c1)c1ccc(-c2ccccc2Cl)o1,> 9.02,"IC50 (HEPG2TOX_HILL_SLOPE 8.29, HEPG2TOX_R_SQUARED 0.71, PBLUC_HILL_SLOPE 14.4, PBLUC_R_SQUARED 0.296, read-out: LUCIFERASE INFECTION ASSAY - IC50): 8.92 µM"
Cc1oc(C(C)(C)C)cc1-c1cc(NC(=O)Nc2ccc(OC(F)(F)F)cc2)n(-c2cc(C(F)(F)F)cc(C(F)(F)F)c2)n1,4.49,"IC50 (HEPG2TOX_HILL_SLOPE 8.23, HEPG2TOX_R_SQUARED 0.187, PBLUC_HILL_SLOPE 2.09, PBLUC_R_SQUARED 0.645, read-out: LUCIFERASE INFECTION ASSAY - IC50): 1.57 µM"
CCCCNC(=O)c1c(NC(=O)c2cccc(C)c2)nc2ccccn12,6.37,"IC50 (HEPG2TOX_HILL_SLOPE 8.37, HEPG2TOX_R_SQUARED 0.0961, PBLUC_HILL_SLOPE 7.21, PBLUC_R_SQUARED 0.187, read-out: LUCIFERASE INFECTION ASSAY - IC50): 4.7 µM"
CCC(C)NC(=O)c1c(NC(=O)c2cccc(C)c2)nc2ccc(C)cn12 (configuration not stated),6.6,"IC50 (HEPG2TOX_HILL_SLOPE 8.22, HEPG2TOX_R_SQUARED 0.0887, PBLUC_HILL_SLOPE 4.24, PBLUC_R_SQUARED 0.444, read-out: LUCIFERASE INFECTION ASSAY - IC50): 3.93 µM"
OCc1cccc(-c2cnc3ccc(-c4cccc(OC(F)(F)F)c4)nn23)c1,4.21,"IC50 (HEPG2TOX_HILL_SLOPE 8.38, HEPG2TOX_R_SQUARED 0.945, PBLUC_HILL_SLOPE 12.7, PBLUC_R_SQUARED 0.452, read-out: LUCIFERASE INFECTION ASSAY - IC50): 3.54 µM"
COc1ccccc1-c1nnc(SC(C(=O)Nc2cc(Cl)cc(Cl)c2)c2ccccc2)o1 (configuration not stated),7.61,"IC50 (HEPG2TOX_HILL_SLOPE 8.26, HEPG2TOX_R_SQUARED 0.825, PBLUC_HILL_SLOPE 4.24, PBLUC_R_SQUARED 0.374, read-out: LUCIFERASE INFECTION ASSAY - IC50): 4.54 µM"
